According to patent publication US9487470B2, “4-((substituted phenyl) difluoromethyl) phenoxy carboxylic acid derivative, and preparation method and uses thereof” (Zhejiang Hisun Pharmaceutical Co., Ltd., priority 2012, dated 2016):

Legend:
[1] = tested on: hyperlipoidemia model of Goldenhamsters (blood plasma TC, TG, HDL-C, LDL-C); experiment: Pharmacological test group 1: effects on blood lipid levels of Goldenhamsters in a hyperlipoidemia model; assay type: in vivo; details: for HDL-C, after administration / LDL-C, after administration / TC, after administration / TG, after administration: 40 mg/kg intragastric, 1 week, high-lipid feed continued, blood plasma, x±s, asterisks = P vs before administration
Source text: Animals: 134 male Goldenhamsters, aged 8 weeks, body weight 80-100 g, provided by Vital River Laboratories, Beijing. […] Kits: The kits for total cholesterol (TC), triglyceride (TG), and high density lipoprotein cholesterol (HDL-C) were provided by SYSMEX, and the kits for low density lipoprotein cholesterol (LDL-C) were provided by Shanghai Kehua Bio-engineering Co., Ltd. Apparatus: SYSMEX Automatic Biochemistry Analyzer, Bechman centrifuge, Setoris balance. The animals were acclimatized and fed for 1 week, ad lib, light cycle was 10 h/14 h, and then feeds with high lipid content were fed to the animals (formulation: 0.3% cholesterol, 20% palm oil, and 79.7% basic feeds). The animals were fed for 10 days, and were fasted at 4:00 pm on the 10th day (fasted for 16 h). On the 11th day, the animals were anaesthetized with ethyl ether, weighted, and then 0.5 ml blood was collected from vena orbitalis posterior. The blood was anticoagulated with heparin, and was centrifugated at 5000 rpm for 10 min. The blood plasma was taken, and the levels of TC, TG, HDL-C, and LDL-C in blood plasma were determined using automatic biochemistry analyzer. The animals were acclimatized and fed for 1 week, ad lib, light cycle was 10 h/14 h, and then feeds with high lipid content were fed to the animals (formulation: 0.3% cholesterol, 20% palm oil, and 79.7% basic feeds). The animals were fed for 2 weeks, and were fasted at 4:00 pm on the […] (fasted for 16 h). On the 22nd day, the animals were anaesthetized with ethyl ether, weighted, and then 0.5 ml blood was collected from vena orbitalis posterior. The blood was anticoagulated with heparin, and was centrifugated at 5000 rpm for 10 min. The blood plasma was taken, and the levels of TC, TG, HDL-C, and LDL-C in blood plasma were determined using automatic biochemistry analyzer. […] During the administration, feeds with high lipid content were continuously fed to the animals. The animals were fed for 1 week, and were fasted at 4:00 pm on the 7th day. On the 8th day, the animals were anaesthetized with ethyl ether, weighted, and then 0.5 ml blood was collected from vena orbitalis posterior. The blood was anticoagulated with heparin, and was centrifugated at 5000 rpm for 10 min. The blood plasma was taken, and the levels of TC, TG, HDL-C, and LDL-C in blood plasma were determined using automatic biochemistry analyzer. The results were represented by x±s, and t test was employed for comparing the results obtained before and after administration.

[2] = tested on: hyperlipoidemia model of Goldenhamsters (blood plasma TC, HDL-C, LDL-C); experiment: Pharmacological test group 2: effects on blood lipid levels of Goldenhamsters in hyperlipoidemia model; assay type: in vivo; details: for blood lipid-regulating effects (conclusion from table 3) / therapeutic effect compared with fenofibrate (conclusion from table 3) / effect on HDL-C, in comparison with the results before administration (in words) / effect on LDL-C, in comparison with the results before administration (in words) / effect on TC, in comparison with the results before administration (in words): 40 mg/kg; for HDL-C, after administration / LDL-C, after administration / TC, after administration: 40 mg/kg intragastric, 1 week, high-lipid feed continued, asterisks = P vs before administration; for HDL-C, after administration / LDL-C, after administration / TC, after administration / HDL-C, before administration / LDL-C, before administration / TC, before administration: blood plasma, x±s; for therapeutic effect compared with fenofibrate (conclusion from table 3): fenofibrate 40 mg/kg; for effect on HDL-C, in comparison with the results before administration (in words) / effect on LDL-C, in comparison with the results before administration (in words) / effect on TC, in comparison with the results before administration (in words): t test after vs before administration; for HDL-C, before administration / LDL-C, before administration / TC, before administration: baseline of the group before administration, high-lipid feed 2 weeks, 6 animals
Source text: (§1) Animals: 120 male Goldenhamsters, aged 8 weeks, body weight 80-100 g, provided by Vital River Laboratories, Beijing.
Kits: The kits for total cholesterol (TC) and high density lipoprotein cholesterol (HDL-C) were provided by SYSMEX, and the kits for low density lipoprotein cholesterol (LDL-C) were provided by Shanghai Kehua Bio-engineering Co., Ltd.
(§2) Apparatus: SYSMEX Automatic Biochemistry Analyzer, Bechman centrifuge, Setoris balance.
(§3) The animals were acclimatized and fed for 1 week, ad lib, light cycle was 10 h/14 h, and then feeds with high lipid content were fed to the animals (formulation: 0.3% cholesterol, 20% palm oil, and 79.7% basic feeds). The animals were fed for 2 weeks, and were fasted at 4:00 pm on the 14th day (fasted for 16 h). On the 15th day, the animals were anaesthetized with ethyl ether, weighted, and then 0.5 ml blood was collected from vena orbitalis posterior. The blood was anticoagulated with heparin, and was centrifugated at 5000 rpm for 10 min. The blood plasma was taken, and the levels of TC, HDL-C, and LDL-C in blood plasma were determined using automatic biochemistry analyzer.
(§4) During the administration, feeds with high lipid content were continuously fed to the animals. The animals were fed for 1 week, and were fasted at 4:00 pm on the 7th day. On the 8th day, the animals were anaesthetized with ethyl ether, weighted, and then 0.5 ml blood was collected from vena orbitalis posterior. The blood was anticoagulated with heparin, and was centrifugated at 5000 rpm for 10 min. The blood plasma was taken, and the levels of TC, HDL-C, and LDL-C in blood plasma were determined using automatic biochemistry analyzer.
(§5) The results were represented by x±s, and t test was employed for comparing the results obtained before and after administration.

[3] = Solubility in water (remark on the test drugs); assay type: physicochemical; details: formulated with 20% solutol
[4] = tested on: hyperlipoidemia model of Goldenhamsters (blood plasma TC, TG, HDL-C, LDL-C); experiment: Pharmacodynamic test group 3: effects on blood lipid levels of Goldenhamsters in a hyperlipoidemia model; assay type: in vivo; details: for HDL-C, after administration / LDL-C, after administration / TC, after administration / TG, after administration: 40 mg/kg intragastric, 1 week, high-lipid feed continued, asterisks = P vs before administration; for HDL-C, after administration / LDL-C, after administration / TC, after administration / TG, after administration / HDL-C, before administration / LDL-C, before administration / TC, before administration / TG, before administration: blood plasma, x±s; for therapeutic effect compared with fenofibrate (conclusion from table 4): fenofibrate 40 mg/kg; for HDL-C, before administration / LDL-C, before administration / TC, before administration / TG, before administration: baseline of the group before administration, high-lipid feed 2 weeks, 6 animals
Source text: as §1
Kits: The kits for total cholesterol (TC), triglyceride (TG), and high density lipoprotein cholesterol (HDL-C) were provided by SYSMEX, and the kits for low density lipoprotein cholesterol (LDL-C) were provided by Shanghai Kehua Bio-engineering Co., Ltd.
as §2
as §3, with “pm of” for “pm on”, “h). At” for “h). On”, “TC, TG,” for “TC,”
as §4, with “pm of” for “pm on”, “day. At” for “day. On”, “TC, TG,” for “TC,”
as §5

[5] = 40 mg/kg, t test after vs before administration

Structure (SMILES) | solubility in water [3] | regulating effects on the levels of blood lipid (conclusion from table 2) ([1]; 40 mg/kg) | HDL-C, after administration [1] | LDL-C, after administration [1] | TC, after administration [1] | TG, after administration [1] | effect on LDL-C, in comparison with the results before administration (in words) [1, 5] | effect on TG, in comparison with the results before administration (in words) [1, 5] | blood lipid-regulating effects (conclusion from table 3) [2] | HDL-C, after administration [2] | blood lipid-regulating effects (conclusion from table 4) ([4]; 40 mg/kg) | LDL-C, after administration [4] | TC, after administration [4] | TG, after administration [4] | effect on LDL-C, in comparison with the results before administration (in words) [4, 5] | effect on TG, in comparison with the results before administration (in words) [4, 5] | HDL-C, before administration [4] | LDL-C, before administration [4] | TC, before administration [4] | TG, before administration [4] | further results
CCOC(=O)C(CC)Oc1ccc(C(F)(F)c2ccc(Cl)cc2)cc1 (stereo not drawn) [HS003-023, Ethyl 2-(4-((4-chlorophenyl)difluoromethyl)phenoxy)butyrate] | insoluble |  |  |  |  |  |  |  |  |  | excellent blood lipid-regulating effects | 2.26 ± 0.38 | 8.49 ± 1.08 | 2.40 ± 0.35 | significantly decreases | significantly decreases | 2.76 ± 0.28 | 2.86 ± 0.63 | 12.39 ± 2.38 | 3.91 ± 1.07 | HDL-C, after administration [4]: 2.88 ± 0.22; therapeutic effect compared with fenofibrate (conclusion from table 4) ([4]; 40 mg/kg): outstanding therapeutic effects, and are superior to fenofibrate; effect on TC, in comparison with the results before administration (in words) [4, 5]: significantly decreases
COC(=O)C(C)Oc1ccc(C(F)(F)c2ccc(Cl)cc2)cc1 (stereo not drawn) [HS003-024, Methyl 2-(4-((4-chlorophenyl)difluoromethyl)phenoxy) propionate] | insoluble |  |  |  |  |  |  |  |  |  | excellent blood lipid-regulating effects | 1.64 ± 0.27 | 7.64 ± 0.46 | 1.92 ± 0.38 | significantly decreases | significantly decreases | 2.76 ± 0.42 | 2.97 ± 0.98 | 12.47 ± 1.85 | 3.96 ± 1.15 | HDL-C, after administration [4]: 2.94 ± 0.41; therapeutic effect compared with fenofibrate (conclusion from table 4) ([4]; 40 mg/kg): outstanding therapeutic effects, and are superior to fenofibrate; effect on TC, in comparison with the results before administration (in words) [4, 5]: significantly decreases
COC(=O)C(CCO)Oc1ccc(C(F)(F)c2ccc(Cl)cc2)cc1 (stereo not drawn) [HS003-031, methyl 2-(4-((4-chlorophenyl)difluoromethyl)phenoxy)-4-hydroxy-butyrate] | insoluble |  |  |  |  |  |  |  |  |  | excellent blood lipid-regulating effects | 1.94 ± 0.42 | 11.44 ± 1.05 | 1.89 ± 0.38 | significantly decreases | significantly decreases | 2.82 ± 0.34 | 3.2 ± 0.83 | 12.61 ± 1.66 | 4.02 ± 1.33 | effect on HDL-C, in comparison with the results before administration (in words) [4, 5]: significantly increases

The next lines start with results.

solubility in water [3] | Structure (SMILES) | regulating effects on the levels of blood lipid (conclusion from table 2) ([1]; 40 mg/kg) | HDL-C, after administration [1] | LDL-C, after administration [1] | TC, after administration [1] | TG, after administration [1] | effect on LDL-C, in comparison with the results before administration (in words) [1, 5] | effect on TG, in comparison with the results before administration (in words) [1, 5] | blood lipid-regulating effects (conclusion from table 3) [2] | HDL-C, after administration [2] | blood lipid-regulating effects (conclusion from table 4) ([4]; 40 mg/kg) | LDL-C, after administration [4] | TC, after administration [4] | TG, after administration [4] | effect on LDL-C, in comparison with the results before administration (in words) [4, 5] | effect on TG, in comparison with the results before administration (in words) [4, 5] | HDL-C, before administration [4] | LDL-C, before administration [4] | TC, before administration [4] | TG, before administration [4] | further results
insoluble | CC(C)OC(=O)C(C)(C)Oc1ccc(C(F)(F)c2ccccc2Cl)cc1 [HS003-014, Isopropyl 2-(4-((2-chlorophenyl)difluoromethyl)phenoxy)-2-methylpropionate] | tend to the effects of significantly decreasing TG, TC, and LDL-C | 3.55 ± 0.4 | 0.75 ± 0.17 | 8.20 ± 0.91 | 0.92 ± 0.25 | significantly decreases | significantly decreases | excellent blood lipid-regulating effects | 1.82 ± 0.18 |  |  |  |  |  |  |  |  |  |  | therapeutic effect compared with fenofibrate (conclusion from table 2) ([1]; 40 mg/kg, fenofibrate 40 mg/kg): outstanding therapeutical effects, and is significantly superior to fenofibrate; effect on TC, in comparison with the results before administration (in words) [1, 5]: significantly decreases; LDL-C, after administration [2]: 1.39 ± 0.51; TC, after administration [2]: 9.51 ± 1; therapeutic effect compared with fenofibrate (conclusion from table 3) [2]: outstanding therapeutic effects, and are superior to fenofibrate; effect on HDL-C, in comparison with the results before administration (in words) [2]: increases; effect on LDL-C, in comparison with the results before administration (in words) [2]: significantly decreases; effect on TC, in comparison with the results before administration (in words) [2]: significantly decreases; HDL-C, before administration [2]: 1.57 ± 0.16; LDL-C, before administration [2]: 3.36 ± 1.19; TC, before administration [2]: 13.97 ± 2.27
insoluble | CC(C)OC(=O)C(C)(C)Oc1ccc(C(F)(F)c2ccc(Cl)cc2)cc1Cl [HS003-020, Isopropyl 2-(4-((4-chlorophenyl)difluoromethyl)-2-chlorophenoxy)-2-methylpropionate] | tend to the effects of significantly decreasing TG, TC, and LDL-C | 4.18 ± 0.07 | 1.0 ± 0.35 | 8.88 ± 0.44 | 1.19 ± 0.49 | significantly decreases | significantly decreases | excellent blood lipid-regulating effects | 1.84 ± 0.14 |  |  |  |  |  |  |  |  |  |  | effect on HDL-C, in comparison with the results before administration (in words) [1, 5]: increase; LDL-C, after administration [2]: 1.42 ± 0.39; TC, after administration [2]: 10.34 ± 1.17; therapeutic effect compared with fenofibrate (conclusion from table 3) [2]: outstanding therapeutic effects, and are superior to fenofibrate; effect on HDL-C, in comparison with the results before administration (in words) [2]: significantly increases; effect on LDL-C, in comparison with the results before administration (in words) [2]: significantly decreases; effect on TC, in comparison with the results before administration (in words) [2]: significantly decreases; HDL-C, before administration [2]: 1.45 ± 0.2; LDL-C, before administration [2]: 3.94 ± 1.41; TC, before administration [2]: 14.06 ± 2.17
